Patent EP0415567A2, “Composition and method for stabilising organic compounds” (QUADRANT BIORESOURCES LIMITED, priority 1989, dated 1991)

Experiments:
[1] = solutions of 25% wv, in six hours at 5°C; cited from earlier work
[2] = test system: DNA ligase; test: Storage stability of dried ATP by DNA ligase assay; format: biochemical; details: ATP at 0.5 mM dried with ligase in trehalose buffer, no acetate as efflorescent salt; 2 weeks at 37°C
From the text: Using an assay for DNA ligase whioh joins DNA fragments using ATP as an energy source.

Structure (SMILES): CC1(C)S[C@@H]2[C@H](NC(=O)[C@H](N)c3ccccc3)C(=O)N2[C@H]1C(=O)O [Ampicillin sodium]
- loss of potency [1]: 20%

Structure (SMILES): Nc1ncnc2c1ncn2[C@@H]1O[C@H](COP(=O)(O)OP(=O)(O)OP(=O)(O)O)[C@@H](O)[C@H]1O [ATP]
- stability of ATP in the dry state [2]: completely stable
